Experimental data: ChEMBL document CHEMBL1201862, “PubChem BioAssay data set” (2004)
Active and inactive are the calls of the source.

Tests used:
[1] = molecular target: Serine/threonine-protein kinase BRSK1 (Homo sapiens, UniProt Q8TDC3); format: functional;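 also: measured within a kinome-wide kinase panel, with the target listed as KIAA1811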
[2] = molecular target: Tyrosine-protein kinase Lck (Homo sapiens, UniProt P06239); format: functional;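 also: lck was assayed as one member of a kinase panel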
[3] = molecular target: Non-receptor tyrosine-protein kinase TYK2 (Homo sapiens, UniProt P29597); format: functional
[4] = molecular target: Mitogen-activated protein kinase kinase kinase kinase 2 (Homo sapiens, UniProt Q12851); format: functional;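 also: measured as one member of a kinome-wide kinase panel, with MAP4K2 as the panel entry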
[5] = molecular target: Tyrosine-protein kinase Lyn (Homo sapiens, UniProt P07948); format: functional;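 also: lyn as one member of a kinase panel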
Chain of Tyrosine-protein kinase Lyn (P07948 whole entry): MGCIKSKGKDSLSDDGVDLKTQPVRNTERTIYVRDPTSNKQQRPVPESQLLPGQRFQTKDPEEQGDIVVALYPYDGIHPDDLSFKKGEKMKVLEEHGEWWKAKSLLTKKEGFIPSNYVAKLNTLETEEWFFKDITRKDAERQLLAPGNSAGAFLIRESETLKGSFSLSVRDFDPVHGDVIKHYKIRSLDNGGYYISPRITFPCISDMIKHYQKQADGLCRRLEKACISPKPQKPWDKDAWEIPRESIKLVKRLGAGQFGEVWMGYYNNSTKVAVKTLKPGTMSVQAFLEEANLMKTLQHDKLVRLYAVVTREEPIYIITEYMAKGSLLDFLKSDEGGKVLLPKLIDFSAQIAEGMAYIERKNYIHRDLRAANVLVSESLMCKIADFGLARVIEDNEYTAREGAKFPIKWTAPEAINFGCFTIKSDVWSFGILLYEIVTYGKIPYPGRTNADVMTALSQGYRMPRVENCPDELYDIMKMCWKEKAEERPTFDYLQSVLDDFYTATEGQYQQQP

[6] = molecular target: Serine/threonine-protein kinase DCLK1 (Homo sapiens, UniProt O15075); format: functional;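 also: affinity for DCLK1 (listed as DCAMKL1) measured as one member of a kinome-wide kinase profiling panel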
Chain of Serine/threonine-protein kinase DCLK1 (O15075 whole entry): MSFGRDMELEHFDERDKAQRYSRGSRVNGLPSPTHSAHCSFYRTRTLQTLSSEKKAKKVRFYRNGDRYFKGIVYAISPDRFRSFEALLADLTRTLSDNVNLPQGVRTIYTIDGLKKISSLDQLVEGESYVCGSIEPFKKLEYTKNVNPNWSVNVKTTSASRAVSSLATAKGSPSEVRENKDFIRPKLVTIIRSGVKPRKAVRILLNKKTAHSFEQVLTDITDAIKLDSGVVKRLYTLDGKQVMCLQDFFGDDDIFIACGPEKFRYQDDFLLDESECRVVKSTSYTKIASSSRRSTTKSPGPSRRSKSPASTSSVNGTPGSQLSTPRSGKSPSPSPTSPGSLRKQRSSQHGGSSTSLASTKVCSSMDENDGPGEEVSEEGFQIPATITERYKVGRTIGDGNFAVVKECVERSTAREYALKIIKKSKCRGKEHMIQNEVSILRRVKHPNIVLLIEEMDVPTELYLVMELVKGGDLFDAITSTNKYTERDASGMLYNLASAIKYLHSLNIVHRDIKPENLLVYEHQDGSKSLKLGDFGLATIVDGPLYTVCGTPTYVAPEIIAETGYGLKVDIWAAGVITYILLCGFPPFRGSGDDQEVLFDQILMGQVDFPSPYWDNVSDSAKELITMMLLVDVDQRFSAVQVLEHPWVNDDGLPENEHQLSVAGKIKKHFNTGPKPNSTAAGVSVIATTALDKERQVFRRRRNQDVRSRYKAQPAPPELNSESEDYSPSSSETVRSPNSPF

[7] = molecular target: MAP/microtubule affinity-regulating kinase 3 (Homo sapiens, UniProt P27448); format: functional;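 also: MARK3 affinity measured as one member of a kinome panel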
Chain of MAP/microtubule affinity-regulating kinase 3 (P27448 whole entry): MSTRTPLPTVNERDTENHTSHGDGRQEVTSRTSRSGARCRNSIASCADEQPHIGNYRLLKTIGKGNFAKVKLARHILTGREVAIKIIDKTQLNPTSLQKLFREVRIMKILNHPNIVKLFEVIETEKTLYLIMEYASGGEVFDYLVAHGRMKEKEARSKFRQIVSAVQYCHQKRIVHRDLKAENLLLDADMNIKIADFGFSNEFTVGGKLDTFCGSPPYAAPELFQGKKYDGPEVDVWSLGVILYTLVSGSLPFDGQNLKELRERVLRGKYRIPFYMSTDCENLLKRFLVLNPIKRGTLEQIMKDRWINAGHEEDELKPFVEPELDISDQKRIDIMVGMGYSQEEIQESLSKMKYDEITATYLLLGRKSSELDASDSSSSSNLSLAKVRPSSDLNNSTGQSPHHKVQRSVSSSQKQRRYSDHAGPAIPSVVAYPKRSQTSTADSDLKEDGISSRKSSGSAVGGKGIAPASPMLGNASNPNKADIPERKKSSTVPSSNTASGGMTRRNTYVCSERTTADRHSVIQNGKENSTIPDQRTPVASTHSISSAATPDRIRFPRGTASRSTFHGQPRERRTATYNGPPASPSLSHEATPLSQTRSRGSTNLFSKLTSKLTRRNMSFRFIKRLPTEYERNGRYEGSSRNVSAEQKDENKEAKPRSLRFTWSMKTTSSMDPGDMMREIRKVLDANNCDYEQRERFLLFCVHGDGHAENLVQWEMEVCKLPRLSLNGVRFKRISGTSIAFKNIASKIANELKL

Focal adhesion kinase 1 = Focal adhesion kinase 1 (Homo sapiens, UniProt Q05397); format: functional;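 also: measured as one member of a kinome panel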
Chain of Focal adhesion kinase 1 (Q05397 whole entry): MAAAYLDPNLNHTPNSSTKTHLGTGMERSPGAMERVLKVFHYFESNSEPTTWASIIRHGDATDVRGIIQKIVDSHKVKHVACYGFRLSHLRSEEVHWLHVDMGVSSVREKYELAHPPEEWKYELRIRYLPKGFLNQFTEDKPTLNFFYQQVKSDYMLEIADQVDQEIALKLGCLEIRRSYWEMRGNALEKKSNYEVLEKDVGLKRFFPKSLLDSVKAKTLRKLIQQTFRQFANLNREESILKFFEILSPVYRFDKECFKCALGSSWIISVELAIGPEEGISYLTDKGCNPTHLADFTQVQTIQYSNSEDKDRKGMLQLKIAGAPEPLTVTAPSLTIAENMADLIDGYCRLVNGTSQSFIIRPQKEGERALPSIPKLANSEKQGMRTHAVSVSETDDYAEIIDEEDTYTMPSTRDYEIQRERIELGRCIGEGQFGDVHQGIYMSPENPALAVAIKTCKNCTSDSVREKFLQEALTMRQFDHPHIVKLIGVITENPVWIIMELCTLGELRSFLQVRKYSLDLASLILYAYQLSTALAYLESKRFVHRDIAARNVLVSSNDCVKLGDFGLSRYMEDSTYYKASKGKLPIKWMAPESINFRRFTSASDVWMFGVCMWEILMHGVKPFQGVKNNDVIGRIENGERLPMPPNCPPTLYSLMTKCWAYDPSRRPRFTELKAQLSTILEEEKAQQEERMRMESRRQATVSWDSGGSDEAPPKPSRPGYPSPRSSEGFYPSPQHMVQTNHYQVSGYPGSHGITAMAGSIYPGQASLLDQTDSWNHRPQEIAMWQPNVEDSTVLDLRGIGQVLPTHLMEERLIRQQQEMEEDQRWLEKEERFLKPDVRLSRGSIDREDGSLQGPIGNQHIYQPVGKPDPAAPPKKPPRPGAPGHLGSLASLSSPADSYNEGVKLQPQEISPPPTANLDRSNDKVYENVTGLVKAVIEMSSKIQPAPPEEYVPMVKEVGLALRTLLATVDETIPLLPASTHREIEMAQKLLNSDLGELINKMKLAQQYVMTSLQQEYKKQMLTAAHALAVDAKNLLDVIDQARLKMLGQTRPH

[8] = molecular target: Mitogen-activated protein kinase 9 (Homo sapiens, UniProt P45984); format: functional;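 also: value from a kinome panel profiling assay, MAPK9 panel entry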
Chain of Mitogen-activated protein kinase 9 (P45984 whole entry): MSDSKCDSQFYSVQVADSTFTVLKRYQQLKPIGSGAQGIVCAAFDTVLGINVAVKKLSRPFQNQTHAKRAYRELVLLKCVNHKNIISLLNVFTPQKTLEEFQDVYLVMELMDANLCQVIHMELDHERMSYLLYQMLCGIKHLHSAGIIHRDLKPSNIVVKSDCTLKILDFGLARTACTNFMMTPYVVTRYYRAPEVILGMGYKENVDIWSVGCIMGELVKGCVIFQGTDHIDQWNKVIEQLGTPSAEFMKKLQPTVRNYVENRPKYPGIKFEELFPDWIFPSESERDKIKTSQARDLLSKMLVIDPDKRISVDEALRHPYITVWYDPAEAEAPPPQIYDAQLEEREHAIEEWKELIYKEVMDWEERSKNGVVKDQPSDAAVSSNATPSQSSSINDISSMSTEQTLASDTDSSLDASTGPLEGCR

[9] = molecular target: Serine/threonine-protein kinase TAO1 (Homo sapiens, UniProt Q7L7X3); format: functional
Chain of Serine/threonine-protein kinase TAO1 (Q7L7X3 whole entry): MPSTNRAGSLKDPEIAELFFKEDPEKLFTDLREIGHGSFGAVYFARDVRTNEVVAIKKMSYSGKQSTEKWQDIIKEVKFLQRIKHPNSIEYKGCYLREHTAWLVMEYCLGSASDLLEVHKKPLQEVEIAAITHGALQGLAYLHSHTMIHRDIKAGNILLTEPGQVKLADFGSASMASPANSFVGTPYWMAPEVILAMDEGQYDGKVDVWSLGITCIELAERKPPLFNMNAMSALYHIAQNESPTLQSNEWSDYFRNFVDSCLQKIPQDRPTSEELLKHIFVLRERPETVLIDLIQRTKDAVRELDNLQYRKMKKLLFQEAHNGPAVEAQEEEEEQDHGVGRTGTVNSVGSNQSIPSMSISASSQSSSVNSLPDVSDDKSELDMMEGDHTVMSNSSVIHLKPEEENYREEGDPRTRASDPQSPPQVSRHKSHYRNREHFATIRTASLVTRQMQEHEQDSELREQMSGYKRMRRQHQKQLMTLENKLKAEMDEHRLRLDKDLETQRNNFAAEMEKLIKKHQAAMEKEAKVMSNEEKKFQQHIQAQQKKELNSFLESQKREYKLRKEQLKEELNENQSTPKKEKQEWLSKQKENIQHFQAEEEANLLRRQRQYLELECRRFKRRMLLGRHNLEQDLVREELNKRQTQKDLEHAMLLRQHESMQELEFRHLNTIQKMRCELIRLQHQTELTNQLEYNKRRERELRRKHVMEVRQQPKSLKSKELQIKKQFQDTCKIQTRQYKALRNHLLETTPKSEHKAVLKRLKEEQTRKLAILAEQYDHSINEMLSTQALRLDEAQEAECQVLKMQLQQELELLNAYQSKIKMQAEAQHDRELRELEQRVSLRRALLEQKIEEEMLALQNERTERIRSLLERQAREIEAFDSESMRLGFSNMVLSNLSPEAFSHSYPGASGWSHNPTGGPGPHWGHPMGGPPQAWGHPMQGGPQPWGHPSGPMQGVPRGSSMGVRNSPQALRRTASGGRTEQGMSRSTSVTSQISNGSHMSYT

SUMO-activating enzyme = SUMO-activating enzyme (Homo sapiens, UniProt Q9UBT2); assay: blockers of SAE1/SAE2–UBC9 SUMO transfer – biochemical, HTRF, uHTS, primary screen (AID 2006); format: protein-complex assay
[10] = molecular target: T1, Sentrin-specific protease 7 (Homo sapiens, UniProt Q9BQF6); assay: inhibition of human SENP7 cleavage activity – biochemical, luminescence, SAR follow-up (AID 504497); format: functional
T1 sequence (Q9BQF6 whole entry): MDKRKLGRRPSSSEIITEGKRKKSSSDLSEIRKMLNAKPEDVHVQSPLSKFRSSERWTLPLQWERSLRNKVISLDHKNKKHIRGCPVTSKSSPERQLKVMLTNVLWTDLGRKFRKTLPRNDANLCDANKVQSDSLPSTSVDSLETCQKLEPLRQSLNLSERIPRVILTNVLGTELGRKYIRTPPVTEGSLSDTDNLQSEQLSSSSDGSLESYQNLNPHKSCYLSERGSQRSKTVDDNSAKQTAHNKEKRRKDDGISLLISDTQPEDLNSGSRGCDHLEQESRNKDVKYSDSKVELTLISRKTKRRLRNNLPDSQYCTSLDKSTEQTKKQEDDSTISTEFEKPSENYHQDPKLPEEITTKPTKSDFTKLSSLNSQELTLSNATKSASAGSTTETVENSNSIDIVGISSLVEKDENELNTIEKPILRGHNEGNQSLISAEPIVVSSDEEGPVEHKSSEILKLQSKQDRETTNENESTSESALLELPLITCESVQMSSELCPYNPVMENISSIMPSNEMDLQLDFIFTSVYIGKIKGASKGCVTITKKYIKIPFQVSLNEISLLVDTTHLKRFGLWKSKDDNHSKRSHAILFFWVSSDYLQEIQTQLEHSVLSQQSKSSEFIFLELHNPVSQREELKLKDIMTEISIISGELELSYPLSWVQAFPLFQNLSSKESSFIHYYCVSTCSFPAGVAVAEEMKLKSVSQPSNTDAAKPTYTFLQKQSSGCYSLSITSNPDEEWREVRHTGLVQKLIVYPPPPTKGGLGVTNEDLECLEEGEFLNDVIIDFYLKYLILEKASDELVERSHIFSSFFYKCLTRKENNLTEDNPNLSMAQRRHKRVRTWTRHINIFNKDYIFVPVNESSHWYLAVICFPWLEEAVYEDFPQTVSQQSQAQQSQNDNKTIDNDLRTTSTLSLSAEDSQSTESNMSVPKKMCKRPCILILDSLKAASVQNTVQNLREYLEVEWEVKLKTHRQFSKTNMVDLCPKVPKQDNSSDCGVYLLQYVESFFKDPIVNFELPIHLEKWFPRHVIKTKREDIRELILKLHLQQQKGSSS

[11] = molecular target: T2, Sentrin-specific protease 6 (Homo sapiens, UniProt Q9GZR1); assay: SAR Analysis of small molecule inhibitors of Sentrin-specific protease 6 (SENP6) using a Luminescent assay. [Related pubchem assays (depositor defined):AID2582, AID2599]; format: functional
T2 sequence (Q9GZR1 whole entry): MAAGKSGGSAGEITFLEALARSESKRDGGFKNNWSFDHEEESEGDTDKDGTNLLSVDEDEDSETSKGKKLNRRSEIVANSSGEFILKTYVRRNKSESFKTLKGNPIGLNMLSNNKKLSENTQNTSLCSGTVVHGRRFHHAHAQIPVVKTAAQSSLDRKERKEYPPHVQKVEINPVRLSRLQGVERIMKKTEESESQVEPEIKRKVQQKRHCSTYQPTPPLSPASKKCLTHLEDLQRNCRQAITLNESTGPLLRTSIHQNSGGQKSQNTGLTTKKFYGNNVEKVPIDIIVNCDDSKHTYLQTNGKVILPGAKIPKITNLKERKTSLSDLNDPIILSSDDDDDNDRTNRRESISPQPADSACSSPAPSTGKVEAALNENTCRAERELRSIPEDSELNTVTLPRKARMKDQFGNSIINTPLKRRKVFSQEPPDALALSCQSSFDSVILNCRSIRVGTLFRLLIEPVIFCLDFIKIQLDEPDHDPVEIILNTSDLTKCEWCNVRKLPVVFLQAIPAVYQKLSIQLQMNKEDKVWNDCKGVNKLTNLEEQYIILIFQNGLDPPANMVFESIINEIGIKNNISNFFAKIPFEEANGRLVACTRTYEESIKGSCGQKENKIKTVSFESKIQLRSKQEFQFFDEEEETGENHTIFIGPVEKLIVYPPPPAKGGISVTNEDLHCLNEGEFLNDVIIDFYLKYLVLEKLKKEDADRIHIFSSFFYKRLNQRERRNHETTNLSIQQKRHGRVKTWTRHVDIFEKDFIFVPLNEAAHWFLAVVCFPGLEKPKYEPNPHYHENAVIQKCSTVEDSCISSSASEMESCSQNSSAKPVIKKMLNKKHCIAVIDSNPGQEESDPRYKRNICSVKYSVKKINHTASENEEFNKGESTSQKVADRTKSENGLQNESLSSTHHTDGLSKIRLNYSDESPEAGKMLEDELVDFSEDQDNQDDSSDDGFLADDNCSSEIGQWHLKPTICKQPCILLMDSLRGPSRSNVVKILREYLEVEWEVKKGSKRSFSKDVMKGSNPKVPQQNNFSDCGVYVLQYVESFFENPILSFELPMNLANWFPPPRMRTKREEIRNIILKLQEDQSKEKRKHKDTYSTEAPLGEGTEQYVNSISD

[12] = molecular target: Intestinal-type alkaline phosphatase (Mus musculus, UniProt P24822); assay: PubChem AID 488874; format: functional
Chain of Intestinal-type alkaline phosphatase (P24822 whole entry): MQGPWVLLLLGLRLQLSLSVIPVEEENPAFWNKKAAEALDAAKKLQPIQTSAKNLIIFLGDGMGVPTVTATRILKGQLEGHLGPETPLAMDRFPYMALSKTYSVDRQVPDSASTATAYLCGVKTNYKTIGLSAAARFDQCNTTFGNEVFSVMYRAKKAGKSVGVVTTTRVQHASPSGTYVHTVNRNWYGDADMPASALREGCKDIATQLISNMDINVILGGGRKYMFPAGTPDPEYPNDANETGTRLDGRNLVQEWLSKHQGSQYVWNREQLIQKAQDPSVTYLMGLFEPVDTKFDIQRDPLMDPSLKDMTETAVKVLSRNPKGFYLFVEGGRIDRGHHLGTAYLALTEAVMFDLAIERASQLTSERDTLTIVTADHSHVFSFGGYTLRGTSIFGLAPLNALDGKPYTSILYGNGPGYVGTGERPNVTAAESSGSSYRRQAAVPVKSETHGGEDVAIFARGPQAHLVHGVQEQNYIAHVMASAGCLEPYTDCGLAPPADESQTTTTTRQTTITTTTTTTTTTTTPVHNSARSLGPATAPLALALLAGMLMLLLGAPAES

INS1 = assay: INS-1E survival protection against cytokine death – cell-based, luminescence, retest, dose response (AID 449756); format: functional; details: Rattus norvegicus;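 also: cell death triggered by IL-1 beta plus TNF-alpha plus IFN-gamma mixture; protective hits raise ATP signal compared with cytokine alone wells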

SMILES: Cc1n[nH]c2ccc(-c3cncc(OCC(N)Cc4cccc(Cl)c4)c3)cc12 (stereo not given)
- Ki [1]: 1.58 µM (active)
- Ki [2]: > 2.51 µM (inactive)
- Ki [3]: > 2 µM (inactive)
- Ki [4]: 63.1 nM (active)
- Ki [5]: > 1.58 µM (inactive)
- Ki [6]: 3.16 µM (active)
- Ki [7]: 251 nM (active)
- Ki (Focal adhesion kinase 1): > 1.58 µM (inactive)
- Ki [8]: 3.98 µM (active)
- Ki [9]: 316 nM (active)

SMILES: CC(=O)NC1C(=O)N(CCN2CCOCC2)c2ccc(F)cc21 (stereo not given)
- IC50 (SUMO-activating enzyme): 12.3 µM (active)

SMILES: O=C(CCc1ccccc1)NNc1cc(N2CCCCC2)nc(N2CCCCC2)n1
- IC50 [10]: 57.9 µM (active)
- IC50 [11]: 35.7 µM (active)

SMILES: Oc1ccc(N=Nc2c(O)ccc3ccccc23)cc1
- IC50 [12]: 17.4 µM (active)

SMILES: O=C1C=C(N2CCCCC2)c2ccccc2C1=O
- AC50 (INS1): 4.98 µM (active)
